Here are results for 21 compounds from patent US9776962B2, “Aromatic compounds with GPR40 agonistic activity” (TAKEDA PHARMACEUTICAL COMPANY LIMITED, priority 2013, dated 2017).

Structures are written as SMILES.

T1 sequence (O14842 whole entry): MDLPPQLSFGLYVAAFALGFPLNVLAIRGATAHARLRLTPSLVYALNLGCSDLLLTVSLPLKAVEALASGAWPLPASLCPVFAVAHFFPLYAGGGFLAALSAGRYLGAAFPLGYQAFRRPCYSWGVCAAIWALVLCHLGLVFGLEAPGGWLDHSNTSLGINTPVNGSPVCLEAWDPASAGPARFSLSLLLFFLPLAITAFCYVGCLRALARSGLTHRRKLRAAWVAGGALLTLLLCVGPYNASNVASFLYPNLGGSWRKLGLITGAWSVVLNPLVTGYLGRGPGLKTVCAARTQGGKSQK

This assay concerns the target T1, human GPR40 (Homo sapiens, UniProt O14842).
T1 construct: expressed in transfected cells
The assay can be described thus: Evaluation of human GPR40 agonist activity with increase in intracellular Ca2+ concentration as an index (FLIPR). The assay is classed as cell-based. Conditions: test compound 1 μM; CHO(dhfr−) cells stably expressing human GPR40; 100% = 10 μM compound of Example 153, 0% = DMSO. On the procedure:
Plasmid hGPR40/pAKKO-1.11H for mammalian cells expression, wherein cDNA fragment (SEQ ID NO: 1) encoding the full-length human GPR40 was incorporated into an expression vector pAKKO-1.11H (Biochimica et Biophysica Acta vol. 1219 pp. 251-259 (1994)), was transfected into CHO-dhfr(−) cells (ATCC, CRL-9096) by using Lipofectamine 2000 (Invitrogen:11668-019). After transfection, the limiting dilution-culture method was performed to select clone in selection medium (nucleic acid-free α-MEM (Invitrogen:12561-056)) containing 10% dialyzed bovine serum (Invitrogen:26400-044)). The expression level of human GPR40 mRNA was confirmed by TaqMan PCR (Life Technologies), and the intracellular calcium mobilization activity of GPR40 ligand (γ-linolenic acid) was confirmed by FLIPR (Molecular Devices), and a clone of human GPR40 expressing CHO cells was selected.
Evaluation of Human GPR40 Agonist Activity with Increase in Intracellular Ca^2+ Concentration as an Index
CHO(dhfr−) cells that stably expressed human GPR40 were suspended in MEMα (Nikken Bio Medical Laboratory) containing 10% dialyzed bovine serum (JR Scientific), 10 mM HEPES (Life Technologies), 100 U/mL penicillin, 100 μg/mL streptomycin (Life Technologies), and plated on a 384 well black/clear cell culture plate at 10,000 cells/well. After culture overnight in a CO2 incubator at 37° C., the culture supernatant was removed, and loading buffer [Ca^2+ probe attached to Calcium Kit II-iCellux (DOJINDO) was dissolved in assay buffer (20 mM HEPES, 0.1% fatty acid-free BSA (Sigma-Aldrich), 2.5 mM probenecid (DOJINDO)-containing HESS (Life Technologies))] was added at 30 μL/well. After leaving for 1 hr at room temperature under light shielding, assay buffer containing the test compound at a final concentration of 1 μM was added at 10 μL/well in FLIPR Tetra (Molecular Devices), and the fluorescence amount was successively measured. Human GPR40 agonist activity calculated using an increase in the intracellular Ca^2+ concentration as an index, wherein the activity of 10 μM of the compound of Example 153 was 100%, and the activity when DMSO was added instead of the test compound was 0%.
`COc1ccc(C(=O)N(CC2CC2(F)F)c2ccccn2)c(N2CCC(COc3cc(C(CC(=O)O)C4CC4)ccn3)CC2)c1` (stereo not drawn) [Example 139, 3-cyclopropyl-3-(2-((1-(2-(((2,2-difluorocyclopropyl)methyl)(pyridin-2-yl)carbamoyl)-5-methoxyphenyl)piperidin-4-yl)methoxy)pyridin-4-yl)propanoic acid] returned an activation at 1 µM of 96%. Still for that read-out and setting: for `COc1ccc(C(=O)N(CC2CCCCC2)c2ccccn2)c(N2CCC(COc3cc(C(CC(=O)O)C4CC4)ccn3)CC2)c1` (stereo not drawn) [Example 195, 3-(2-((1-(2-((cyclohexylmethyl)(pyridin-2-yl)carbamoyl)-5-methoxyphenyl)piperidin-4-yl)methoxy)pyridin-4-yl)-3-cyclopropylpropanoic acid] the value was 98%; for `COc1cc(N2CCC(COc3cc(C(CC(=O)O)C4CC4)ccn3)CC2)c(C(=O)N(CC(C)(C)C)c2cc(C)cc(C)n2)cn1` (stereo not drawn) [Example 284, 3-cyclopropyl-3-(2-((1-(5-((2,2-dimethylpropyl) (4,6-dimethylpyridin-2-yl)-carbamoyl)-2-methoxypyridin-4-yl)-piperidin-4-yl)-methoxy)pyridin-4-yl)propanoic acid], 103%; for `CCC(C)(C)N(C(=O)c1ccc(OC)cc1N1CCC(COc2cc(C(CC(=O)O)C3CC3)ccn2)CC1)c1ccccn1` (stereo not drawn) [Example 145, 3-cyclopropyl-3-(2-((1-(5-methoxy-2-((2-methylbutan-2-yl)(pyridin-2-yl)carbamoyl)phenyl)piperidin-4-yl)methoxy)pyridin-4-yl)propanoic acid], 96%.

`COc1cc(N2CCC(COc3cc(C(CC(=O)O)C4CC4)ccn3)CC2)c(C(=O)N(CC(C)(C)C)c2cc(C)nc(C)n2)cn1` (stereo not drawn) [Example 286, 3-cyclopropyl-3-(2-((1-(5-((2,2-dimethylpropyl) (2,6-dimethylpyrimidin-4-yl)carbamoyl)-2-methoxypyridin-4-yl)piperidin-4-yl)methoxy)pyridin-4-yl)propanoic acid] showed an activation at 1 µM of 107%. Still for that read-out and setting: for `COc1ccc(C(=O)NCC(F)(F)C(F)(F)F)c(N2CCC(COc3cc(C(CC(=O)O)C4CC4)ccn3)CC2)c1` (stereo not drawn) [Example 129, 3-cyclopropyl-3-(2-((1-(5-methoxy-2-((2,2,3,3,3-pentafluoropropyl)carbamoyl)phenyl)piperidin-4-yl)methoxy)pyridin-4-yl)propanoic acid] the value was 81%; for `COc1ccc(C(=O)N(CC(F)F)c2ccccn2)c(N2CCC(COc3cc(C(CC(=O)O)C4CC4)ccn3)CC2)c1` (stereo not drawn) [Example 137, 3-cyclopropyl-3-(2-((1-(2-((2,2-difluoroethyl)(pyridin-2-yl)carbamoyl)-5-methoxyphenyl)piperidin-4-yl)methoxy)pyridin-4-yl)propanoic acid], 96%. The compound `COc1ccc(C(=O)N(CC(C)(C)C)c2cccnn2)c(N2CCC(COc3cc(C(CC(=O)O)C4CC4)ccn3)CC2)c1` (stereo not drawn) [Example 179, 3-cyclopropyl-3-(2-((1-(2-((2,2-dimethylpropyl)(pyridazin-3-yl)carbamoyl)-5-methoxyphenyl)piperidin-4-yl)methoxy)pyridin-4-yl)propanoic acid] gave an activation at 1 µM of 84%. The same measure, in the same setting: for `COc1ccc(C(=O)N(CC(C)(C)OC)c2ccccc2)c(N2CCC(COc3cc(C(CC(=O)O)C4CC4)ccn3)CC2)c1` (stereo not drawn) [Example 188, 3-cyclopropyl-3-(2-((1-(5-methoxy-2-((2-methoxy-2-methylpropyl)(phenyl)carbamoyl)phenyl)piperidin-4-yl)methoxy)pyridin-4-yl)propanoic acid] the value was 95%. Same read-out and setting: then `COc1ccc(C(=O)Nc2cccc(C)n2)c(N2CCC(COc3cc(C(CC(=O)O)C4CC4)ccn3)CC2)c1` (stereo not drawn) [Example 241, 3-cyclopropyl-3-(2-((1-(5-methoxy-2-((6-methylpyridin-2-yl)-carbamoyl)phenyl)-piperidin-4-yl)methoxy)pyridin-4-yl)propanoic acid], with 95%. Regarding `COc1ccc(C(=O)N(CC2CC2)c2ccccn2)c(N2CCC(COc3cc(C(CC(=O)O)C4CC4)ccn3)CC2)c1` (single isomer, unassigned) [Example 141, 3-cyclopropyl-3-(2-((1-(2-((cyclopropylmethyl)(pyridin-2-yl)carbamoyl)-5-methoxyphenyl)piperidin-4-yl)methoxy)pyridin-4-yl)propanoic acid], the activation at 1 µM was found to be 81%. `COc1ccc(C(=O)N(c2ccccn2)C2CCN(Cc3ccccc3)CC2)c(N2CCC(COc3cc(C(CC(=O)O)C4CC4)ccn3)CC2)c1` (stereo not drawn) [Example 190, 3-(2-((1-(2-((1-benzylpiperidin-4-yl)(pyridin-2-yl)carbamoyl)-5-methoxyphenyl)piperidin-4-yl)methoxy)pyridin-4-yl)-3-cyclopropylpropanoic acid]: the “Activity (human GPR40 agonist activity)” value came to 66%. On to `COc1ccc(C(=O)N(CC(C)(C)C#N)c2ccccn2)c(N2CCC(COc3cc(C(CC(=O)O)C4CC4)ccn3)CC2)c1` (stereo not drawn) [Example 134, 3-(2-((1-(2-((2-cyano-2-methylpropyl)(pyridin-2-yl)carbamoyl)-5-methoxyphenyl)piperidin-4-yl)methoxy)pyridin-4-yl)-3-cyclopropylpropanoic acid], for which the activation at 1 µM stood at 84%.

Consider `COc1ccc(C(=O)N(CC(C)(C)C)c2ccccn2)c(N2CC[C@H](COc3cccc(C(CC(=O)O)C4CC4)c3)[C@@H](C)C2)c1` (stereo partly drawn) [Example 279, (3S)-cyclopropyl-3-(3-(((3R,4S)-1-(2-((2,2-dimethylpropyl) (pyridin-2-yl)carbamoyl)-5-methoxyphenyl)-3-methylpiperidin-4-yl)methoxy)phenyl)-propanoic acid], for which the activation at 1 µM was found to be 92%. On the same count and under the same terms, then `COc1ccc(C(=O)N(CC(C)(C)C)c2cncc(C)c2)c(N2CCC(COc3cc(C(CC(=O)O)C4CC4)ccn3)CC2)c1` (stereo not drawn) [Example 231, 3-cyclopropyl-3-(2-((1-(2-((2,2-dimethylpropyl) (5-methylpyridin-3-yl)carbamoyl)-5-methoxyphenyl)piperidin-4-yl)methoxy)pyridin-4-yl)propanoic acid], with 92%; and `COc1ccc(C(=O)N(CC(C)(C)F)c2cccc(C)n2)c(N2CCC(COc3cc(C(CC(=O)O)C4CC4)ccn3)CC2)c1` (stereo not drawn) [Example 152, 3-cyclopropyl-3-(2-((1-(2-((2-fluoro-2-methylpropyl)(6-methylpyridin-2-yl)carbamoyl)-5-methoxyphenyl)piperidin-4-yl)methoxy)pyridin-4-yl)propanoic acid], with 100%; and `COc1ccc(C(=O)N(CC(C)(C)C)c2ncccn2)c(N2CCC(COc3cc(C(CC(=O)O)C4CC4)ccn3)CC2)c1` (stereo not drawn) [Example 156, 3-cyclopropyl-3-(2-((1-(2-((2,2-dimethylpropyl)(pyrimidin-2-yl)carbamoyl)-5-methoxyphenyl)piperidin-4-yl)methoxy)pyridin-4-yl)propanoic acid], with 98%. Still for that read-out and setting: for `COc1ccc(C(=O)N(CC(F)(F)F)c2cncc(C(F)(F)F)c2)c(N2CCC(COc3cc(C(CC(=O)O)C4CC4)ccn3)CC2)c1` (stereo not drawn) [Example 236, 3-cyclopropyl-3-(2-((1-(5-methoxy-2-((2,2,2-trifluoroethyl) (5-(trifluoromethyl)pyridin-3-yl)carbamoyl)-phenyl)piperidin-4-yl)methoxy)pyridin-4-yl)propanoic acid] the value was 91%. Still for that read-out and setting: for `COc1ccc(C(=O)N(CC(F)(F)F)c2cc(C)ncn2)c(N2CCC(COc3cc(C(CC(=O)O)C4CC4)ccn3)CC2)c1` (stereo not drawn) [Example 240, 3-cyclopropyl-3-(2-((1-(5-methoxy-2-((6-methylpyrimidin-4-yl)-(2,2,2-trifluoroethyl)-carbamoyl)phenyl)-piperidin-4-yl)methoxy)-pyridin-4-yl)propanoic acid] the value was 99%. The compound `COc1ccc(C(=O)N(CC2CCOCC2)c2ccccn2)c(N2CCC(COc3cc(C(CC(=O)O)C4CC4)ccn3)CC2)c1` (stereo not drawn) [Example 196, 3-cyclopropyl-3-(2-((1-(5-methoxy-2-(pyridin-2-yl(tetrahydro-2H-pyran-4-ylmethyl)carbamoyl)phenyl)piperidin-4-yl)methoxy)pyridin-4-yl)propanoic acid] yielded an activation at 1 µM of 81%. The compound `COc1ccc(C(=O)N(CC(C)C)c2cc(C#N)ccn2)c(N2CCC(COc3cc(C(CC(=O)O)C4CC4)ccn3)CC2)c1` (stereo not drawn) [Example 158, 3-(2-((1-(2-((4-cyanopyridin-2-yl)(2-methylpropyl)carbamoyl)-5-methoxyphenyl)piperidin-4-yl)methoxy)pyridin-4-yl)-3-cyclopropylpropanoic acid] returned an activation at 1 µM of 96%.
